Test results as given in patent publication US20190367516A1 (Bayer Pharma Aktiengesellschaft, priority 2015, published 2019).

Molecular target: T1, human M2 receptor (Homo sapiens, UniProt P08172)
T1 sequence (P08172 1-466): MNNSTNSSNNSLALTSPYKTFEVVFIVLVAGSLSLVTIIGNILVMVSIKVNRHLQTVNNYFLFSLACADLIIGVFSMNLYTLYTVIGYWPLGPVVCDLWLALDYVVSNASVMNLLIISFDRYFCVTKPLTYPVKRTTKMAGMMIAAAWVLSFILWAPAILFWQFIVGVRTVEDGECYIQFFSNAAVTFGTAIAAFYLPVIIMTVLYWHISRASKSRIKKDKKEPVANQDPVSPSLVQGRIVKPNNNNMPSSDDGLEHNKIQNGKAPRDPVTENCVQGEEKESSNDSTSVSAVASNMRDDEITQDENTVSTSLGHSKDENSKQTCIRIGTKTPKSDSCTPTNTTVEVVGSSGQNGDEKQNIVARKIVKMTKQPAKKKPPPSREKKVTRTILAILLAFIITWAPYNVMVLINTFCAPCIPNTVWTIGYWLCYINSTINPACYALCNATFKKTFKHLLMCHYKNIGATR
Settings: for EC50: Receptor activity EC50, M2-GIRK1/4 activation test, acetylcholine at EC20, allosteric potency, in some cases mean values from two or more determinations; for Emax: read-out: Efficiency

EC50 [nM] | Compound | Emax [%]
13 | CC(C)(C)[C@H](NC(=O)c1cn(-c2c(F)cc(F)cc2F)c2nc(N3CCNC3=O)ccc2c1=O)C(F)(F)F [Example 359, 4-Oxo-7-(2-oxoimidazolidin-1-yl)-N-[(2S)-1,1,1-trifluoro-3,3-dimethylbutan-2-yl]-1-(2,4,6-trifluorophenyl)-1,4-dihydro-1,8-naphthyridine-3-carboxamide] | –
17 | CC(C)(C)[C@@H](NC(=O)c1cn(-c2c(F)cc(F)cc2F)c2nc(N3CCN(CCO)C3=O)ccc2c1=O)C(F)(F)F [Example 361, 7-[3-(2-Hydroxyethyl)-2-oxoimidazolidin-1-yl]-4-oxo-N-[(2R)-1,1,1-trifluoro-3,3-dimethylbutan-2-yl]-1-(2,4,6-trifluorophenyl)-1,4-dihydro-1,8-naphthyridine-3-carboxamide] | –
89 | O=C(N[C@@H](C1CC1)C(F)(F)F)c1cn(-c2c(F)cc(F)cc2F)c2nc(N3CCNS3(=O)=O)ccc2c1=O [Example 373, N-[(1 S)-1-Cyclopropyl-2,2,2-trifluoroethyl]-7-(d1,1-dioxido-1,2,5-thiadiazolidin-2-yl)-4-oxo-1-(2,4,6-trifluorophenyl)-1,4-dihydro-1,8-naphthyridine-3-carboxamide] | –
49 | O=C(N[C@@H](C1CC1)C(F)(F)F)c1cn(-c2c(F)cc(F)cc2F)c2nc(N3CCOC3=O)ccc2c1=O [Example 374, N-[(1S)-1-Cyclopropyl-2,2,2-trifluoroethyl]-4-oxo-7-(2-oxo-1,3-oxazolidin-1.3-yl)-1-(2,4,6-trifluorophenyl)-1,4-dihydro-1,8-naphthyridine-3-carboxamide] | –
40 | CC(C)(CC(F)(F)F)NC(=O)c1cn(-c2c(F)cc(F)cc2F)c2nc(N3CCN(CCO)C3=O)ccc2c1=O [Example 375, 7-[3-(2-Hydroxyethyl)-2-oxoimidazolidin-1-yl]-4-oxo-N-(4,4,4-trifluoro-2-methylbutan-2-yl)-1-(2,4,6-trifluorophenyl)-1,4-dihydro-1,8-naphthyridine-3-carboxamide] | –
16 | CC(C)(CC(F)(F)F)NC(=O)c1cn(-c2c(F)cc(F)cc2F)c2nc(N3CCNC3=O)ccc2c1=O [Example 376, 4-Oxo-7-(2-oxoimidazolidin-11-yl)-N-(4,4,4-trifluoro-2-methylbutan-2-yl)-1-(2,4,6-trifluorophenyl)-1,4-dihydro-1,8-naphthyridine-3-carboxamide] | –
81 | C[C@@H](O)CNc1ccc2c(=O)c(C(=O)N[C@@H](C3CC3)C(F)(F)F)cn(-c3c(F)cc(F)cc3F)c2n1 [Example 378, N-[(1S)-1-Cyclopropyl-2,2,2-trifluoroethyl]-7-{[(2R)-2-hydroxypropyl]amino}-4-oxo-1-(2,4,6-trifluorophenyl)-1,4-dihydro-1,8-naphthyridine-3-carboxamide] | –
35 | CC(C)(NC(=O)c1cn(-c2c(F)cc(F)cc2F)c2nc(N3C[C@@H](O)[C@H](O)C3)ccc2c1=O)C1CC1 [Example 379, N-(2-Cyclopropylpropan-2-yl)-7-[(3R,4R)-3,4-dihydroxypyrrolidin-1-yl]-4-oxo-1-(2,4,6-trifluorophenyl)-1,4-dihydro-1,8-naphthyridine-3-carboxamide] | –
46 | N#CN1CCCN(c2ccc3c(=O)c(C(=O)N[C@@H](C4CC4)C(F)(F)F)cn(-c4c(F)cc(F)cc4F)c3n2)C1=O [Example 380, 7-(3-Cyano-2-oxotetrahydropyrimidin-1(2H)-yl)-N-[(1S)-1-cyclopropyl-2,2,2-trifluoroethyl]-4-oxo-1-(2,4,6-trifluorophenyl)-1,4-dihydro-1,8-naphthyridine-3-carboxamide] | –
23 | C[C@@H]1CN(c2ccc3c(=O)c(C(=O)N[C@@H](C)COC(F)(F)F)cn(-c4c(F)cc(F)cc4F)c3n2)C(=O)N1 [Example 381, 7-[(4R)-4-Methyl-2-oxoimidazolidin-1-yl]-4-oxo-N-[(2S)-1-(trifluoromethoxy)propan-2-yl]-1-(2,4,6-trifluorophenyl)-1,4-dihydro-1,8-naphthyridine-3-carboxamide] | –
18 | CC(C)(CC(F)(F)F)NC(=O)c1cn(-c2c(F)cc(F)cc2F)c2nc(N3CCCN(CCO)C3=O)ccc2c1=O [Example 383, 7-[3-(2-Hydroxyethyl)-2-oxotetrahydropyrimidin-1(2H)-yl]-4-oxo-N-(4,4,4-trifluoro-2-methylbutan-2-yl)-1-(2,4,6-trifluorophenyl)-1,4-dihydro-1,8-naphthyridine-3-carboxamide] | –
42 | O=C(N[C@H](C1CC1)C(F)(F)F)c1cn(-c2c(Cl)cc(F)cc2Cl)c2nc(N3C[C@@H](O)CC3=O)ccc2c1=O [Example 387, N-[(1R)-1-Cyclopropyl-2,2,2-trifluoroethyl]-1-(2,6-dichloro-4-fluorophenyl)-7-[(4S)-4-hydroxy-2-oxopyrrolidin-1-yl]-4-oxo-1,4-dihydro-1,8-naphthyridine-3-carboxamide] | –
14 | C[C@@H]1C[C@](C)(O)CN1c1ccc2c(=O)c(C(=O)N[C@@H](C)C(F)(F)F)cn(-c3c(F)cc(F)cc3Cl)c2n1 [Example 390, 1-(2-Chloro-4,6-difluorophenyl)-7-[(2R,4S)-4-hydroxy-2,4-dimethylpyrrolidin-1-yl]-4-oxo-N-[(2S)-1,1,1-trifluoropropan-2-yl]-1,4-dihydro-1,8-naphthyridine-3-carboxamide] | –

Second part, the compound before the results:

Compound | EC50 [nM] | Emax [%]
CC[C@@H](NC(=O)c1cn(-c2ccc(F)cc2F)c2nc(N3CCC4CC4(O)C3)ccc2c1=O)C(F)(F)F (stereo partly drawn) [Example 354, 1-(2,4-Difluorophenyl)-7-[1-hydroxy-3-azabicyclo[4.1.0]hept-3-yl]-4-oxo-N-[(2R)-1,1,1-trifluorobutan-2-yl]-1,4-dihydro-1,8-naphthyridine-3-carboxamide] | 38 | –
CC[C@@H](NC(=O)c1cn(-c2ccc(F)cc2F)c2nc(N3CC(O)C4(CC4)C3)ccc2c1=O)C(F)(F)F (stereo partly drawn) [Example 355, 1-(2,4-Difluorophenyl)-7-[7-hydroxy-5-azaspiro[2.4]hept-5-yl]-4-oxo-N-[(2R)-1,1,1-trifluorobutan-2-yl]-1,4-dihydro-1,8-naphthyridine-3-carboxamide] | 85 | –
CC[C@@H](NC(=O)c1cn(-c2ccc(F)cc2F)c2nc(N3CC(O)C(C)(C)C3)ccc2c1=O)C(F)(F)F (stereo partly drawn) [Example 356, 1-(2,4-Difluorophenyl)-7-[4-hydroxy-3,3-dimethylpyrrolidin-1-yl]-4-oxo-N-[(2R)-1,1,1-trifluorobutan-2-yl]-1,4-dihydro-1,8-naphthyridine-3-carboxamide] | 94 | –
O=C(NC12CC(F)(C1)C2)c1cn(-c2c(F)cc(F)cc2F)c2nc(N3C[C@@H](O)CC3=O)ccc2c1=O [Example 367, N-(3-Fluorobicyclo[1.1.1]pent-1-yl)-7-[(4S)-4-hydroxy-2-oxopyrrolidin-1-yl]-4-oxo-1-(2,4,6-trifluorophenyl)-1,4-dihydro-1,8-naphthyridine-3-carboxamide] | 100 | –
O=C(NC12CC(F)(C1)C2)c1cn(-c2c(F)cc(F)cc2F)c2nc(N3C[C@@H](O)[C@H](O)C3)ccc2c1=O [Example 368, 7-[(3R,4R)-3,4-Dihydroxypyrrolidin-1-yl]-N-(3-fluorobicyclo[1.1.1]pent-1-yl)-4-oxo-1-(2,4,6-trifluorophenyl)-1,4-dihydro-1,8-naphthyridine-3-carboxamide] | 91 | –
CC(C)(NC(=O)c1cn(-c2c(F)cc(F)cc2F)c2nc(N3CCCN(CCO)C3=O)ccc2c1=O)C(F)F [Example 382, N-(1,1-Difluoro-2-methylpropan-2-yl)-7-[3-(2-hydroxyethyl)-2-oxotetrahydropyrimidin-1(2H)-yl]-4-oxo-1-(2,4,6-trifluorophenyl)-1,4-dihydro-1,8-naphthyridine-3-carboxamide] | 72 | –
CC[C@@H](NC(=O)c1cn(-c2c(Cl)cc(F)cc2Cl)c2nc(N3C[C@@H](O)CC3=O)ccc2c1=O)C(F)(F)F [Example 388, 1-(2,6-Dichloro-4-fluorophenyl)-7-[(4S)-4-hydroxy-2-oxopyrrolidin-1-yl]-4-oxo-N-[(2R)-1,1,1-trifluorobutan-2-yl]-1,4-dihydro-1,8-naphthyridine-3-carboxamide] | 52 | 89
CC[C@H](NC(=O)c1cn(-c2c(Cl)cc(F)cc2Cl)c2nc(N3C[C@@H](O)CC3=O)ccc2c1=O)C(F)(F)F [Example 389, 1-(2,6-Dichloro-4-fluorophenyl)-7-[(4S)-4-hydroxy-2-oxopyrrolidin-1-yl]-4-oxo-N-[(2S)-1,1,1-trifluorobutan-2-yl]-1,4-dihydro-1,8-naphthyridine-3-carboxamide] | 38 | 85.5
CC(C)(CC(F)(F)F)NC(=O)c1cn(-c2c(F)cc(F)cc2Cl)c2nc(N3C[C@@H](O)[C@H](O)C3)ccc2c1=O [Example 391, 1-(2-Chloro-4,6-difluorophenyl)-7-[(3R,4R)-3,4-dihydroxypyrrolidin-1-yl]-4-oxo-N-(4,4,4-trifluoro-2-methylbutan-2-yl)-1,4-dihydro-1,8-naphthyridine-3-carboxamide] | 8 | –
CC(C)(CC(F)(F)F)NC(=O)c1cn(-c2c(F)cc(F)cc2Cl)c2nc(N3CCNC3=O)ccc2c1=O [Example 394, 1-(2-Chloro-4,6-difluorophenyl)-4-oxo-7-(2-oxoimidazolidin-1-yl)-N-(4,4,4-trifluoro-2-methylbutan-2-yl)-1,4-dihydro-1,8-naphthyridine-3-carboxamide] | 7 | –
